In one test the test system is HCT-116. The experiment in a line: Antiproliferative activity against human HCT116 cells after 72 hrs by phosphatase assay. The class given is functional, cell-based. Particulars: HCT-116, 72 h.
Test [1] is described as follows: Cytotoxicity against human HCT116/VM46 cells assessed as reduction in cell viability after 72 hrs by phosphatase assay. In kind it is cell-based. Particulars: HCT-116/VM46, 72 h.
Another test has as its system L1210. In words: Antiproliferative activity against mouse L1210 cells after 72 hrs by phosphatase assay. In kind it is functional, cell-based. Conditions: L1210, 72 h.

For `CC[C@]1(NC(=O)c2ccc3cc(NC(=O)OC(C)(C)C)ccc3c2)C[C@H]2CN(CCc3c([nH]c4ccccc34)[C@@](C(=O)OC)(c3cc4c(cc3OC)N(C)[C@H]3[C@@](O)(C(=O)OC)[C@H](OC(C)=O)[C@]5(CC)C=CCN6CC[C@]43[C@@H]65)C2)C1`, the half-maximal inhibitory concentration (IC50) with HCT-116 worked out at 6.5 nM; in test [1], 60 nM; with L1210 it was 5 nM.
As for `CC[C@]1(NC(=O)c2ccc3ncccc3c2)C[C@H]2CN(CCc3c([nH]c4ccccc34)[C@@](C(=O)OC)(c3cc4c(cc3OC)N(C)[C@H]3[C@@](O)(C(=O)OC)[C@H](OC(C)=O)[C@]5(CC)C=CCN6CC[C@]43[C@@H]65)C2)C1`, the figures for the IC50 (with HCT-116; in test [1]; in the test with L1210) were 0.6 nM, 4.9 nM and 0.6 nM, respectively.
For `CC[C@]1(NC(=O)c2ccc3c(c2)OCCO3)C[C@H]2CN(CCc3c([nH]c4ccccc34)[C@@](C(=O)OC)(c3cc4c(cc3OC)N(C)[C@H]3[C@@](O)(C(=O)OC)[C@H](OC(C)=O)[C@]5(CC)C=CCN6CC[C@]43[C@@H]65)C2)C1`, the IC50 came to 0.5 nM with HCT-116, 5.3 nM in test [1] and 0.6 nM with L1210.
For `CC[C@]1(NS(=O)(=O)c2cccc3c(N(C)C)cccc23)C[C@H]2CN(CCc3c([nH]c4ccccc34)[C@@](C(=O)OC)(c3cc4c(cc3OC)N(C)[C@H]3[C@@](O)(C(=O)OC)[C@H](OC(C)=O)[C@]5(CC)C=CCN6CC[C@]43[C@@H]65)C2)C1`, the half-maximal inhibitory concentration (IC50) amounted to 30 nM in the test on HCT-116, 60 nM in test [1] and 30 nM in the test on L1210.
For the compound `CC[C@]1(NC(=O)c2ccc(SC(C)C)cc2)C[C@H]2CN(CCc3c([nH]c4ccccc34)[C@@](C(=O)OC)(c3cc4c(cc3OC)N(C)[C@H]3[C@@](O)(C(=O)OC)[C@H](OC(C)=O)[C@]5(CC)C=CCN6CC[C@]43[C@@H]65)C2)C1`, the half-inhibitory concentration (IC50) in the test on HCT-116 was 4.6 nM; in test [1], 55 nM; in the test on L1210, 4.3 nM.
`CC[C@]1(NC(=O)c2ccc([N+](=O)[O-])cc2)C[C@H]2CN(CCc3c([nH]c4ccccc34)[C@@](C(=O)OC)(c3cc4c(cc3OC)N(C)[C@H]3[C@@](O)(C(=O)OC)[C@H](OC(C)=O)[C@]5(CC)C=CCN6CC[C@]43[C@@H]65)C2)C1`: the values for the IC50 (in the test with HCT-116; in test [1]; with L1210) were 6.1 nM, 60 nM and 6.1 nM, respectively.
In the case of `CC[C@]1(NC(=O)c2ccc(N)c(C)c2)C[C@H]2CN(CCc3c([nH]c4ccccc34)[C@@](C(=O)OC)(c3cc4c(cc3OC)N(C)[C@H]3[C@@](O)(C(=O)OC)[C@H](OC(C)=O)[C@]5(CC)C=CCN6CC[C@]43[C@@H]65)C2)C1`, the values for the 50% inhibitory concentration (IC50) (in the test with HCT-116; in test [1]; in the test on L1210) were 0.6 nM, 7.8 nM and 0.6 nM, respectively.
`CC[C@]1(NC(=O)c2cnccn2)C[C@H]2CN(CCc3c([nH]c4ccccc34)[C@@](C(=O)OC)(c3cc4c(cc3OC)N(C)[C@H]3[C@@](O)(C(=O)OC)[C@H](OC(C)=O)[C@]5(CC)C=CCN6CC[C@]43[C@@H]65)C2)C1`: the concentration for half-maximal inhibition (IC50) with HCT-116 was 20 nM; in test [1], 550 nM; in the test on L1210, 40 nM.
In the same order, the values of `CC[C@]1(NC(=O)c2ccc(OC(F)(F)F)cc2)C[C@H]2CN(CCc3c([nH]c4ccc(F)cc34)[C@@](C(=O)OC)(c3cc4c(cc3OC)N(C)[C@H]3[C@@](O)(C(=O)OC)[C@H](OC(C)=O)[C@]5(CC)C=CCN6CC[C@]43[C@@H]65)C2)C1` are 0.7 nM, 1 nM and 0.6 nM.
In the same order, the values of `CC[C@]1(NC(=O)Cc2ccccc2)C[C@H]2CN(CCc3c([nH]c4ccccc34)[C@@](C(=O)OC)(c3cc4c(cc3OC)N(C)[C@H]3[C@@](O)(C(=O)OC)[C@H](OC(C)=O)[C@]5(CC)C=CCN6CC[C@]43[C@@H]65)C2)C1` are 55 nM, 550 nM and 55 nM.
For `CC[C@]1(NC(=O)C2CCSCC2)C[C@H]2CN(CCc3c([nH]c4ccccc34)[C@@](C(=O)OC)(c3cc4c(cc3OC)N(C)[C@H]3[C@@](O)(C(=O)OC)[C@H](OC(C)=O)[C@]5(CC)C=CCN6CC[C@]43[C@@H]65)C2)C1`, the half-maximal inhibitory concentration (IC50) in the test with HCT-116 came to 450 nM; in test [1], 5200 nM; in the test with L1210, 460 nM.
In the same order, the values of `CC[C@]1(NC(=O)c2ccc3c(c2)OCO3)C[C@H]2CN(CCc3c([nH]c4ccccc34)[C@@](C(=O)OC)(c3cc4c(cc3OC)N(C)[C@H]3[C@@](O)(C(=O)OC)[C@H](OC(C)=O)[C@]5(CC)C=CCN6CC[C@]43[C@@H]65)C2)C1` are 0.8 nM, 8.7 nM and 0.6 nM.
In the same order, the values of `CC[C@]1(NC(=O)c2ccc3c(c2)CCCCC3)C[C@H]2CN(CCc3c([nH]c4ccccc34)[C@@](C(=O)OC)(c3cc4c(cc3OC)N(C)[C@H]3[C@@](O)(C(=O)OC)[C@H](OC(C)=O)[C@]5(CC)C=CCN6CC[C@]43[C@@H]65)C2)C1` are 4.8 nM, 35 nM and 6.1 nM.
In the same order, the values of `CC[C@]1(NC(=O)c2cn(C)cn2)C[C@H]2CN(CCc3c([nH]c4ccccc34)[C@@](C(=O)OC)(c3cc4c(cc3OC)N(C)[C@H]3[C@@](O)(C(=O)OC)[C@H](OC(C)=O)[C@]5(CC)C=CCN6CC[C@]43[C@@H]65)C2)C1` are 50 nM, > 1000 nM and 80 nM.
Consider `CC[C@]1(NC(=O)c2ccc3ncsc3c2)C[C@H]2CN(CCc3c([nH]c4ccccc34)[C@@](C(=O)OC)(c3cc4c(cc3OC)N(C)[C@H]3[C@@](O)(C(=O)OC)[C@H](OC(C)=O)[C@]5(CC)C=CCN6CC[C@]43[C@@H]65)C2)C1`, for which the concentration for half-maximal inhibition (IC50) in the test on HCT-116 is 0.6 nM; in test [1], 20 nM; with L1210, 0.5 nM.
`CC[C@]1(NC(=O)c2ccc(OC(F)(F)F)c(OC)c2)C[C@H]2CN(CCc3c([nH]c4ccccc34)[C@@](C(=O)OC)(c3cc4c(cc3OC)N(C)[C@H]3[C@@](O)(C(=O)OC)[C@H](OC(C)=O)[C@]5(CC)C=CCN6CC[C@]43[C@@H]65)C2)C1`: the 50% inhibitory concentration (IC50) amounted to 1.7 nM in the test with HCT-116, 6.9 nM in test [1] and 1.3 nM in the test with L1210.
Consider `CC[C@]1(NC(=O)C2CCNCC2)C[C@H]2CN(CCc3c([nH]c4ccccc34)[C@@](C(=O)OC)(c3cc4c(cc3OC)N(C)[C@H]3[C@@](O)(C(=O)OC)[C@H](OC(C)=O)[C@]5(CC)C=CCN6CC[C@]43[C@@H]65)C2)C1`, for which the half-maximal inhibitory concentration (IC50) with HCT-116 is > 10000 nM; in test [1], > 10000 nM; in the test on L1210, 4200 nM.
On to `CCOc1ccc(C(=O)N[C@@]2(CC)C[C@H]3CN(CCc4c([nH]c5ccccc45)[C@@](C(=O)OC)(c4cc5c(cc4OC)N(C)[C@H]4[C@@](O)(C(=O)OC)[C@H](OC(C)=O)[C@]6(CC)C=CCN7CC[C@]54[C@@H]76)C3)C2)cc1`, for which the IC50 came out at 0.6 nM in the test on HCT-116, 2.8 nM in test [1] and 0.6 nM with L1210.
For the compound `CC[C@]1(NC(=O)c2ccc3ccccc3n2)C[C@H]2CN(CCc3c([nH]c4ccccc34)[C@@](C(=O)OC)(c3cc4c(cc3OC)N(C)[C@H]3[C@@](O)(C(=O)OC)[C@H](OC(C)=O)[C@]5(CC)C=CCN6CC[C@]43[C@@H]65)C2)C1`, the values for the IC50 (in the test on HCT-116; in test [1]; in the test on L1210) were 40 nM, 270 nM and 40 nM, respectively.
As for `CC[C@]1(NC(=O)c2ccc(OCc3ccccc3)cc2)C[C@H]2CN(CCc3c([nH]c4ccccc34)[C@@](C(=O)OC)(c3cc4c(cc3OC)N(C)[C@H]3[C@@](O)(C(=O)OC)[C@H](OC(C)=O)[C@]5(CC)C=CCN6CC[C@]43[C@@H]65)C2)C1`, the values for the IC50 (in the test on HCT-116; in test [1]; in the test with L1210) were 5.7 nM, 55 nM and 5.4 nM, respectively.
Take `CC[C@]1(NC(=O)c2cncn2C)C[C@H]2CN(CCc3c([nH]c4ccccc34)[C@@](C(=O)OC)(c3cc4c(cc3OC)N(C)[C@H]3[C@@](O)(C(=O)OC)[C@H](OC(C)=O)[C@]5(CC)C=CCN6CC[C@]43[C@@H]65)C2)C1`: the IC50 in the test on HCT-116 stood at 2.2 nM; in test [1], 80 nM; with L1210, 4 nM.
In the same order, the values of `CCCCCC(=O)N[C@@]1(CC)C[C@H]2CN(CCc3c([nH]c4ccccc34)[C@@](C(=O)OC)(c3cc4c(cc3OC)N(C)[C@H]3[C@@](O)(C(=O)OC)[C@H](OC(C)=O)[C@]5(CC)C=CCN6CC[C@]43[C@@H]65)C2)C1` are 40 nM, 450 nM and 55 nM.
In the case of `CC[C@]1(NS(=O)(=O)c2ccc(C)cc2)C[C@H]2CN(CCc3c([nH]c4ccccc34)[C@@](C(=O)OC)(c3cc4c(cc3OC)N(C)[C@H]3[C@@](O)(C(=O)OC)[C@H](OC(C)=O)[C@]5(CC)C=CCN6CC[C@]43[C@@H]65)C2)C1`, the half-inhibitory concentration (IC50) with HCT-116 turned out to be 30 nM; in test [1] it was 330 nM; in the test on L1210, 40 nM.
In the same order, the values of `CCSc1ccc(C(=O)N[C@@]2(CC)C[C@H]3CN(CCc4c([nH]c5ccccc45)[C@@](C(=O)OC)(c4cc5c(cc4OC)N(C)[C@H]4[C@@](O)(C(=O)OC)[C@H](OC(C)=O)[C@]6(CC)C=CCN7CC[C@]54[C@@H]76)C3)C2)cc1` are 6.1 nM, 35 nM and 4.9 nM.
With `CC[C@]1(NC(=O)/C=C/c2ccccn2)C[C@H]2CN(CCc3c([nH]c4ccccc34)[C@@](C(=O)OC)(c3cc4c(cc3OC)N(C)[C@H]3[C@@](O)(C(=O)OC)[C@H](OC(C)=O)[C@]5(CC)C=CCN6CC[C@]43[C@@H]65)C2)C1`, the results for the concentration for half-maximal inhibition (IC50) (in the test on HCT-116; in test [1]; in the test with L1210) were 0.7 nM, 25 nM and 0.7 nM, respectively.
For the compound `CC[C@]1(NC(=O)c2cccc(Br)c2)C[C@H]2CN(CCc3c([nH]c4ccccc34)[C@@](C(=O)OC)(c3cc4c(cc3OC)N(C)[C@H]3[C@@](O)(C(=O)OC)[C@H](OC(C)=O)[C@]5(CC)C=CCN6CC[C@]43[C@@H]65)C2)C1`, the concentration for half-maximal inhibition (IC50) in the test with HCT-116 turned out to be 6.3 nM; in test [1], 60 nM; in the test on L1210 it was 5 nM.

As a reminder, the IC50 is the point on the concentration scale where inhibition reaches its midpoint.
